The record followed here is ChEMBL document CHEMBL1833960, “Identification of 5,6-substituted 4-aminothieno[2,3-d]pyrimidines as LIMK1 inhibitors” (Bioorg Med Chem Lett, 2011).

SMILES strings stand for the structures. A value given as a limit tells only on which side of the number the result lay.

For assay [1], the target named is T1, LIM domain kinase 1 (Homo sapiens, UniProt P53667). Kind of assay: Inhibition of LIMK1 using cofilin-2 as substrate after 60 mins by Kinase-Glo assay. A general note: In Kinase-Glo more light means more ATP remaining.
Assay [2] addresses T1, LIM domain kinase 1. As to the kind of experiment: Inhibition of LIMK1 using cofilin-2 as substrate after 60 mins by TR-FRET assay. A general note: In TR-FRET formats the signal depends on donor and acceptor labels being close together.

T1 sequence (P53667 whole entry, the tested form may be a part): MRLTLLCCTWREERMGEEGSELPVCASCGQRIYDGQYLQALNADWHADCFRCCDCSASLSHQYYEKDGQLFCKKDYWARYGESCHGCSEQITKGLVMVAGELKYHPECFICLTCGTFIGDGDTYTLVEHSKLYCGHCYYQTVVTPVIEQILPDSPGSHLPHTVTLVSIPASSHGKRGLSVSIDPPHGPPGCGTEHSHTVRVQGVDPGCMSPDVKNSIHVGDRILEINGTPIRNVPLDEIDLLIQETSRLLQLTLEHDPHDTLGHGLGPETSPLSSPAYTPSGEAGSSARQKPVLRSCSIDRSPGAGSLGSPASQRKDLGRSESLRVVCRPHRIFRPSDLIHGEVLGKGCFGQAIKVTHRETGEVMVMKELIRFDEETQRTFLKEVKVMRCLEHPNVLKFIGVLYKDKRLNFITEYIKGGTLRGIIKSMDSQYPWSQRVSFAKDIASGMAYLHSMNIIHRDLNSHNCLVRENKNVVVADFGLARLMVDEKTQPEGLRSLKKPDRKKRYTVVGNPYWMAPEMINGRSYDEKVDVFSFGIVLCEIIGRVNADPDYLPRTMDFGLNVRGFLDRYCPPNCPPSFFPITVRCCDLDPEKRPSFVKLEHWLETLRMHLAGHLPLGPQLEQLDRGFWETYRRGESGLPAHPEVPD

As for `Nc1ncnc2sc3c(c12)CCc1ccccc1-3`, the IC50 against LIM domain kinase 1 [1] and against LIM domain kinase 1 [2] was 4.3 µM throughout.
`Nc1ncnc2sc3c(c12)CCC(C(=O)O)C3` (stereo not given): the IC50 against LIM domain kinase 1 [1] and at LIM domain kinase 1 [2] was above 20 µM throughout.
For `CSc1nc(N)c2c3c(sc2n1)CCC3`, the IC50 against LIM domain kinase 1 [1] and against LIM domain kinase 1 [2] was above 100 µM throughout.
As for `Cn1c2ccccc2c2ncnc(N)c21`, the IC50 against LIM domain kinase 1 [1] came to 4 µM.
For the compound `Nc1nc(SCC(=O)O)nc2sc3c(c12)CCCC3`, the IC50 at LIM domain kinase 1 [1] and against LIM domain kinase 1 [2] was above 100 µM each time.
Turning to `Cc1c(-c2ccccc2)sc2ncnc(N)c12`, the IC50 at LIM domain kinase 1 [1] and on LIM domain kinase 1 [2] was 17 µM each time.
For the compound `Cc1nc(N)c2c3c(sc2n1)CCCC3`, the IC50 against LIM domain kinase 1 [1] and against LIM domain kinase 1 [2] was above 100 µM each time.
On LIM domain kinase 1 [1], `NC(=O)c1sc2ncccc2c1N` showed an IC50 of 37 µM. This lies in the double-digit micromolar range.
For `CC(Nc1ncnc2sc3c(c12)CCCC3)c1ccccc1` (stereo not given), the IC50 against LIM domain kinase 1 [1] and against LIM domain kinase 1 [2] was above 100 µM throughout.
Regarding `Nc1ncnc2sc3c(c12)CCC(c1ccccc1)C3` (stereo not given), the IC50 at LIM domain kinase 1 [1] and against LIM domain kinase 1 [2] was above 20 µM in each case.
For the compound `Nc1ncnc2sc3c(c12)CCC3`, the IC50 at LIM domain kinase 1 [1] and at LIM domain kinase 1 [2] was 5.3 µM each time.
Take `CC1(C)CCc2sc3ncnc(N)c3c21`: the IC50 against LIM domain kinase 1 [1] and against LIM domain kinase 1 [2] was 2.1 µM throughout.
Consider `c1nc(N2CCCCC2)c2c3c(sc2n1)CCCC3`, for which the IC50 against LIM domain kinase 1 [1] and at LIM domain kinase 1 [2] was above 100 µM each time.
Consider `COc1ccc(-c2sc3ncnc(N)c3c2C)cc1OC`, for which the IC50 against LIM domain kinase 1 [1] and on LIM domain kinase 1 [2] was 3.2 µM throughout.
With `CC1(C)CCc2c(sc3ncnc(N)c23)C1`, the IC50 against LIM domain kinase 1 [1] and against LIM domain kinase 1 [2] was 2.8 µM throughout.
As to `Nc1ncnc2sc3c(c12)CCCC3`, the IC50 against LIM domain kinase 1 [1] and against LIM domain kinase 1 [2] was 4 µM each time.
Regarding `Nc1nc(=S)[nH]c2sc3c(c12)CCCC3`, the IC50 against LIM domain kinase 1 [1] and against LIM domain kinase 1 [2] was above 100 µM throughout.
For `COc1ccc(Nc2ncnc3sc4c(c23)CCCC4)cc1`, the IC50 against LIM domain kinase 1 [1] and against LIM domain kinase 1 [2] was above 100 µM throughout.
Take `NCCNc1ncnc2sc3c(c12)CCCC3`: the IC50 against LIM domain kinase 1 [1] and on LIM domain kinase 1 [2] was above 100 µM throughout.
The compound `Nc1ncnc2c1sc1ccccc12` gave an IC50 against LIM domain kinase 1 [1] of 7 µM.
With `CC1CCCc2sc3ncnc(N)c3c21` (stereo not given), the 50% inhibitory concentration (IC50) against LIM domain kinase 1 [1] and against LIM domain kinase 1 [2] was 2.7 µM in each case.
On to `Nc1ncnc2sc3c(c12)CCOC3`, for which the IC50 against LIM domain kinase 1 [1] and at LIM domain kinase 1 [2] was 3.5 µM each time.
In the case of `Nc1nc(-c2cccs2)nc2sc3c(c12)CCCC3`, the IC50 at LIM domain kinase 1 [1] and at LIM domain kinase 1 [2] was above 100 µM each time.
The compound `Cn1c2cc(-c3ccccc3)ccc2c2ncnc(N)c21` returned an IC50 on LIM domain kinase 1 [1] of 0.26 µM.
For the compound `CCOC(=O)C1CCc2c(sc3ncnc(N)c23)C1` (stereo not given), the IC50 against LIM domain kinase 1 [1] and against LIM domain kinase 1 [2] was 2.3 µM in each case.
Take `NC(=O)C1CCc2c(sc3ncnc(N)c23)C1` (stereo not given): the IC50 against LIM domain kinase 1 [1] and on LIM domain kinase 1 [2] was 9.1 µM each time.
With `CC1CCc2c(sc3ncnc(N)c23)C1` (stereo not given), the IC50 at LIM domain kinase 1 [1] and at LIM domain kinase 1 [2] was 18 µM in each case.
As to `Cc1sc2ncnc(N)c2c1C`, the IC50 on LIM domain kinase 1 [1] and against LIM domain kinase 1 [2] was 4.4 µM each time.
On to `Nc1ncnc2sc3c(c12)CCC(C(=O)N1CCOCC1)C3` (stereo not given), for which the IC50 on LIM domain kinase 1 [1] and against LIM domain kinase 1 [2] was 9.5 µM throughout.
Turning to `CNc1ncnc2sc3c(c12)CCCC3`, the IC50 against LIM domain kinase 1 [1] and against LIM domain kinase 1 [2] was above 100 µM throughout.
On LIM domain kinase 1 [1], `Nc1ncnc2c1sc1ncccc12` gave an IC50 of 9 µM.
Consider `c1ccc(CCNc2ncnc3sc4c(c23)CCCC4)cc1`, for which the IC50 on LIM domain kinase 1 [1] and against LIM domain kinase 1 [2] was above 100 µM throughout.
As for `CC1(C)Cc2c(sc3ncnc(N)c23)CO1`, the IC50 on LIM domain kinase 1 [1] and against LIM domain kinase 1 [2] was 12.7 µM each time.
For the compound `Nc1ncnc2sc3c(c12)CCN(Cc1ccccc1)C3`, the IC50 on LIM domain kinase 1 [1] and against LIM domain kinase 1 [2] was 0.66 µM throughout.
With `Nc1ncnc2sc3c(c12)Cc1ccccc1-3`, the half-maximal inhibitory concentration (IC50) against LIM domain kinase 1 [1] and at LIM domain kinase 1 [2] was 11 µM each time.
Regarding `Nc1ncnc2c1sc1cc(-c3ccccc3)ccc12`, the IC50 at LIM domain kinase 1 [1] is 0.3 µM.
In turn, `NC(=O)c1sc2ccccc2c1N` had an IC50 at LIM domain kinase 1 [1] of 33 µM. This IC50 lies about 110-fold higher than the previous one.
On to `Nc1nc(-c2ccccc2)nc2sc3c(c12)CCCC3`, for which the IC50 on LIM domain kinase 1 [1] and on LIM domain kinase 1 [2] was above 100 µM throughout.
For `Nc1nc(S)nc2sc3c(c12)CCCCC3`, the IC50 at LIM domain kinase 1 [1] and against LIM domain kinase 1 [2] was above 100 µM in each case.
With `CN(C)c1ncnc2sc3c(c12)CCCC3`, the IC50 against LIM domain kinase 1 [1] and against LIM domain kinase 1 [2] was above 100 µM in each case.
`CSc1nc(N)c2c3c(sc2n1)CCCC3`: the IC50 against LIM domain kinase 1 [1] and against LIM domain kinase 1 [2] was above 100 µM in each case.
Consider `Nc1ncnc2sc3c(c12)CC1CC3C1`, for which the IC50 against LIM domain kinase 1 [1] and on LIM domain kinase 1 [2] was 1.8 µM each time.
`Nc1ncnc2sc3c(c12)CCC(C(=O)NCc1ccccc1)C3` (stereo not given): the IC50 on LIM domain kinase 1 [1] and on LIM domain kinase 1 [2] was 8.6 µM throughout.
Consider `OCCNc1ncnc2sc3c(c12)CCCC3`, for which the IC50 on LIM domain kinase 1 [1] and at LIM domain kinase 1 [2] was above 100 µM throughout.
`Nc1ncnc2sc3c(c12)CCCCC3`: the IC50 on LIM domain kinase 1 [1] and on LIM domain kinase 1 [2] was 2.5 µM each time.
On to `CSc1nc(N)c2c3c(sc2n1)CCCCC3`, for which the IC50 on LIM domain kinase 1 [1] and on LIM domain kinase 1 [2] was above 100 µM each time.

As usually defined, the IC50 is the midpoint of a concentration-inhibition curve. A low value points to higher potency.
